Entries after “also recorded” stand apart in the source; their conditions may differ. Read-outs that look alike come from different tables or passages of the source. Residues, ends and D or L forms follow the SMILES beside them. *: point of attachment. Orn(α-tetramethylguanidino) = CN(C)C(=N[C@@H](CCCN)C(=O)*)N(C)C

The values below come from article PMC6783563 (Frontiers in Microbiology, 2019).

The subject of data set [1] is CD-1 mice. As to the kind of experiment: Tolerance study after intravenous injection in mice. It counts as in vivo, mouse. The following applies: female CD-1 mice, n = 2. The method, then: (§1) Eight female CD-1 mice (22–30 g, n = 2) or four SD rats (218–260 g, n = 1) were treated iv (10 and 5 mL/kg, respectively) with Api137 formulated in 0.9% saline (TEKnova, Hollister, CA, United States) at concentrations of 5, 10, 25, and 50 mg/kg body weight and their behavior monitored for 24 h.

Data set [2] relates to SD rats. Kind of data set: Tolerance study after intravenous injection in rats. The format is in vivo, rat. The following applies: monitored 24 h, n = 1. The method, then:
as §1

The nature of data set [3]: Pharmacokinetics: Api137 plasma levels after iv or sc injection in mice. The following applies: in vivo. Further details: species or system CD-1 mice. The method, then: (§2) Api137 dissolved in 0.9% saline was injected iv or sc in mice (18–26 g, total = 51) and rats (204–248 g, total = 12) at a dose volume of 10 and 5 mL/kg BW, respectively, according to the dosing scheme (Supplementary Figures 1, 2). Three mice per dose and time point were euthanized by carbon dioxide inhalation and blood was collected via cardiac puncture into K2-EDTA Microtainer® tubes (Becton Dickinson and Company, BD, Franklin Lakes, NJ, United States). Additionally, blood was collected via saphenous vein puncture from three rats into identic tubes.
(§3) Api137 was quantified in EDTA plasma samples using reversed-phase chromatography (RP-HPLC) coupled to electrospray ionization mass spectrometry (ESI-MS/MS) at TNO Triskelion (Zeist, Netherlands). Analog Api134 was used as internal standard. Briefly, internal standard solution (10 μL, 5 mg/L) was added to a plasma sample (50 μL) and mixed with aqueous phosphoric acid (50 μL; 4%, v/v). Solid phase extraction was performed on a WCX micro-elution plate (Waters Corporation, Milford, MA, United States) with a final elution using aqueous acetonitrile (75%, v/v) containing 1% (v/v) trifluoroacetic acid. Extracts were analyzed on an Acquity C18 BEH column (2.1 mm internal diameter, 10 cm length, 1.7 μm particle size; Waters) using an Acquity UPLC system coupled online to a XEVO TQS mass spectrometer (Waters; for details see Supplementary Material). Alternatively, Api137 and metabolites 1–16 and 1–17 were quantified for selected samples in house as reported recently ([Schmidt et al., 2017]).
(§4) 1. Quantitative analysis of Api137 in plasma using a LC-MS/ MS method
(§5) Chemicals were obtained from the following manufacturers. Biosolve B.V. (Valkenswaard, The Netherlands): acetonitrile, formic acid, methanol (all ULC/MS grade); Sigma-Aldrich (St.
(§6) Louis, MO, USA): phosphoric acid (Fluka, 85%), trifluoroacetic acid (Reagent Plus, 99%); Merck KGaA (Darmstadt, Germany): ammonia (25%); water (Milli -Q® Advantage A10 Water […]
(§7) Internal standard solution (10 µL, Api134, 5 µg/mL) was added to a plasma sample (50 µL or 25 µL) and mixed with aqueous phosphoric acid (50 µL or 75 µL; 4%, v/v). Solid phase extraction (SPE) was performed on a WCX micro -elution plate (2 mg, Waters):
(§8) Conditioning I Methanol 200
(§9) Conditioning II Purified water 200
(§10) Sample application Diluted plasma sample 110
(§11) Wash step I Aqueous ammonia (5%, v/v) 200
(§12) Wash step II Aqueous acetonitrile (20%, v/v) 200
(§13) Elution I Aqueous acetonitrile (75%, v/v) including trifluoroacetic 50 […]
(§14) Elution II Aqueous acetonitrile (75%, v/v) including trifluoroacetic 50 […]
(§15) Water (100 µL) was added to the eluate and the plate was covered to avoid avaporation. The plate was shaken (10 min, plate shaker) and the extract was analysed using RPC-MS/MS.
(§16) (1 picture or pasted object on this page, not shown here)
(§17) 1.2.RPC-ESI-MS/MS equipment and conditions
(§18) Equipment/Parameter Value
(§19) UPLC system Acquity (Micromass Waters)
(§20) UPLC column temperature 50 °C
(§21) Autosampler temperature 10 °C […]
(§22) Mobile phase A 1% formic acid in water
(§23) Mobile phase B 1% formic acid in acetonitrile
(§24) Strong Wash [Volume] Methanol/Water/Formic acid (80/20/0.1) [200 µL]
(§25) Weak wash [Volume] Acetonitrile/Water/Trifluoroacetic acid (40/60/0.25) [600 µL]
(§26) Mass spectrometer XEVO TQS (Micromass Waters)
(§27) Ionization mode Electrospray ionization (positive mode)
(§28) Source temperature 150 °C
(§29) Desolvation temperature 600 °C
(§30) Desolvation gas flow 1000 L/h
(§31) Time [min] Mobile phase B [%]
(§32) 1.4.Conditions for multiple reaction monitoring
(§33) Peptide Precursor ion (m/z) Product ion (m/z) Cone [V] Collision energy [eV]
(§34) The peak area of the peptides was obtained using MassLynx 4.1 software (Micromass Waters). The peak a rea ratio (PAR) of peptide Api137 and the internal standard Api134 (Y-axis) was plotted versus the actual peptide concentration (x -axis) to construct a calibration […]
(§35) Supplementary Figure 1 : Dosing schemes and time -points of blood collection for pharmacokinetic analysis of three mice per dose group and time -point. […]

The nature of data set [4]: in vivo. Further details: species or system Sprague Dawley rats. The following applies: Sprague Dawley, rat. The protocol:
as §2, §3, §4, §5, §6, §7, §8, §9, §10, §11, §12, §13, §14, §15, §16, §17, §18, §19, §20, §21, §22, §23, §24, §25, §26, §27, §28, §29, §30, §31, §32, §33, §34, §35

For data set [5] the following is noted: mouse, in vivo, cited from earlier work. The source says:
In particular, cationic proline-rich antimicrobial peptides (PrAMPs) belong to the second group binding to the negatively charged bacteria surface by electrostatic interactions through basic amino acid residues. Proline residues account for extended, partially polyproline helix II-like secondary structures that most likely support free penetration through the outer membrane of Gram-negative bacteria. PrAMPs accumulate in the periplasmic space where the transporters SbmA and MdtM actively translocate them into the cells ([Mattiuzzo et al., 2007]; [Runti et al., 2013]; [Krizsan et al., 2015a]). ... || Severe multi-drug resistant infections are treated under medical supervision in the hospital using intravenous injection or infusion as preferred administration route for rapid and controlled achievement of efficacious drug plasma levels. […] Unexpectedly, the maximal plasma levels of 6.8 mg/L obtai ...

In data set [6] the test system is mouse. The following applies: in vivo, ip, 10 mg/kg; cited from earlier work. The source says: In particular, cationic proline-rich antimicrobial peptides (PrAMPs) belong to the second group binding to the negatively charged bacteria surface by electrostatic interactions through basic amino acid residues. Proline residues account for extended, partially polyproline helix II-like secondary structures that most likely support free penetration through the outer membrane of Gram-negative bacteria. PrAMPs accumulate in the periplasmic space where the transporters SbmA and MdtM actively translocate them into the cells ([Mattiuzzo et al., 2007]; [Runti et al., 2013]; [Krizsan et al., 2015a]). ...

Data set [7] concerns Escherichia coli ATCC 25922. As to the kind of experiment: Lethal murine intraperitoneal sepsis (infection) model. It counts as in vivo, CD-1 mice. The following applies: control, iv 0.25 mg/kg at 1 h post infection, n = 6. The protocol:
Escherichia coli ATCC 25922 was obtained from American Type Culture Collection (Manassas, VA, United States). Cells were grown overnight on solid agar, suspended in saline and adjusted to an OD of 0.1 at 625 nm. The suspension was further diluted in 5% hog gastric mucin (Sigma-Aldrich Corporation, St. Louis, MO, United States) and final inoculums between 4.8 × 10^5 and 2.0 × 10^6 colony forming units (cfu) per mouse were injected ip (500 μL). Api137 and levofloxacin was dissolved in sterile saline and sterile water, respectively, and were administered iv (5 mL/kg) into the tail vein or sc (10 mL/kg) into the back. Alternatively, an hour post infection ALZET® osmotic pumps were implanted under isoflurane anesthesia (see above). After 24 h, pumps were exchanged once and finally removed after 48 h.
The log-rank (Mantel-Cox) test was used for comparison of the survival curves and dose-response curves were fitted with the “dose-response log(inhibitor) vs. normalized response – variable slope” function with “least squares fit” using GraphPad Prism 5.02.

Data set [8] is described as follows: EDTA plasma of CD-1 mice after continuous sc infusion of Api137 (12.8 mg/kg/h) using ALZET osmotic pumps. The following applies: up to 24 h.
Where [9] appears, read: CD-1, mouse, iv, 5 mg/kg, Plasma level.
[10] abbreviates: CD-1, mouse, iv, 10 mg/kg, Plasma level.
The mark [11] stands for this setting: CD-1, mouse, iv, 20 mg/kg, Plasma level.
The mark [12] stands for this setting: CD-1, mouse, sc, 20 mg/kg, Plasma level.

On to `CC[C@H](C)[C@H](NC(=O)[C@H](Cc1ccc(O)cc1)NC(=O)[C@@H](NC(=O)[C@@H]1CCCN1C(=O)[C@H](CCCNC(=N)N)NC(=O)[C@H](CC(N)=O)NC(=O)[C@H](CC(N)=O)NC(=O)[C@H](CCCN)N=C(N(C)C)N(C)C)C(C)C)C(=O)N1CCC[C@H]1C(=O)N[C@@H](CCCNC(=N)N)C(=O)N1CCC[C@H]1C(=O)N[C@@H](CCCNC(=N)N)C(=O)N1CCC[C@H]1C(=O)N1CCC[C@H]1C(=O)N[C@@H](Cc1c[nH]cn1)C(=O)N1CCC[C@H]1C(=O)N[C@@H](CCCNC(=N)N)C(=O)N[C@@H](CC(C)C)C(=O)O` [Api137] ({Orn(α-tetramethylguanidino)}-NNRPVYIPRPRPPHPRL-OH), for which the “Tolerance after iv injection” value in data set [1] (5 mg/kg iv in 0.9% saline, monitored 24 h) was “No adverse effects were observed”; in data set [1] (50 mg/kg iv) it was “experienced convulsion and low blood pressure immediately after dosing and died within 1 min”; in data set [1] (10 and 20 mg/kg iv, monitored 24 h), “lethargic within minutes directly after dosing with piloerection for the next 45 min but recovered to normal limits within 1 h”; in data set [2] (5 mg/kg iv) it was “No adverse effects were observed”; in data set [2] (10 to 50 mg/kg iv), “experienced labored breathing and lethargy but recovered to normal limits within 5 h post injection”. Moreover, the level at 0.5 h in data set [3] (CD-1, mouse, 20 mg/kg, Plasma level after 30 min) is approximately 500 ng/mL; in data set [3] (setting [9]), 90 ng/mL; in data set [3] (setting [10]), 300 ng/mL; in data set [3] (setting [11]), 440 ng/mL; in data set [3] (setting [12]), 300 ng/mL; in data set [4] (iv) it was 160 to 210 ng/mL. Moreover, the level at 0.5 h in data set [4] (sc, 5 mg/kg) is 30 ng/mL; in data set [4] (sc, 10 mg/kg), 80 ng/mL; in data set [4] (sc, 20 mg/kg), 250 ng/mL. In addition, the Plasma level in data set [3] (CD-1, mouse, iv) is 5 to 20 ng/mL; in data set [5] (ip, 5 mg/kg), 0.2 mg/L. For the same compound, the level at 245 min in data set [3] (CD-1, mouse, iv, 5 mg/kg, Plasma concentration) amounted to 10100 ng/mL; in data set [3] (CD-1, mouse, iv, 10 mg/kg, Plasma concentration) it was 10500 ng/mL; in data set [3] (CD-1, mouse, iv, 20 mg/kg, Plasma concentration), 22900 ng/mL; in data set [3] (setting [11]) it was 12500 ng/mL. The level at 5 min in data set [3] (setting [9]) stood at 6800 ng/mL; in data set [3] (setting [10]) it was 12900 ng/mL; in data set [3] (setting [11]) it was 23200 ng/mL; in data set [3] (CD-1, mouse, sc, 5 mg/kg, Plasma level) it was 400 ng/mL; in data set [3] (CD-1, mouse, sc, 10 mg/kg, Plasma level), 900 ng/mL; in data set [3] (setting [12]), 2900 ng/mL. Moreover, the level at 5 min is 100 ng/mL in data set [4] (sc, 5 mg/kg); 400 ng/mL in data set [4] (sc, 10 mg/kg); 800 ng/mL in data set [4] (sc, 20 mg/kg). Further, the results for the level at 4.5 h in data set [3] (setting [10]) and in data set [3] (setting [11]) were 160 ng/mL and 90 ng/mL, respectively. For the same compound, in data set [3] (setting [11]), the level at 125 min was determined as 15400 ng/mL. Besides, the level at 1 h came out at 14 ng/mL in data set [3] (setting [12]) and 20 ng/mL in data set [4] (sc, 20 mg/kg). The half-life (commonly the time needed for the level to fall by half in the phase considered) in data set [3] (mouse, iv, 20 mg/kg) is less than 30 min. In data set [5] (ip, 20 mg/kg), the Maximal plasma level is reported as 3.6 mg/L. Further, in data set [5] (iv, 5 mg/kg), the “Plasma level (maximal)” value is given as 0.4 mg/L. Further, the “Immune response (anti-Api137 IgG antibodies)” value in data set [6] was “Only one mouse showed a very weak immune response with a very low level of anti-Api137 IgG antibodies”.
With `C[C@H]1COc2c(N3CCN(C)CC3)c(F)cc3c(=O)c(C(=O)O)cn1c23` [levofloxacin], the “Efficacy compared with Api137” value in data set [7] was “more efficacious”.
In the case of Gu-ONNRPVYIPRPRPPHPRL-OH, the fragment found result in data set [8] is given as “Api137(1-17), major, 1 h; also recorded: Api137(1-16), major, 1 h”.
